What follows are compounds tested against αvβ1 integrin (αvβ1 expressing CHO cells) (Homo sapiens (Human), UniProt P05556+P06756) (assay: Cell adhesion assay: inhibition of αvβ1 expressing CHO cells attaching to TGFβ1LAP). Settings: 1 h at 37° C., crystal violet absorbance 595 nm, read-out: αvβ1 Inhibition IC50 (nM)-range.
Sequence of αvβ1 integrin (αvβ1 expressing CHO cells) (P06756 31-889): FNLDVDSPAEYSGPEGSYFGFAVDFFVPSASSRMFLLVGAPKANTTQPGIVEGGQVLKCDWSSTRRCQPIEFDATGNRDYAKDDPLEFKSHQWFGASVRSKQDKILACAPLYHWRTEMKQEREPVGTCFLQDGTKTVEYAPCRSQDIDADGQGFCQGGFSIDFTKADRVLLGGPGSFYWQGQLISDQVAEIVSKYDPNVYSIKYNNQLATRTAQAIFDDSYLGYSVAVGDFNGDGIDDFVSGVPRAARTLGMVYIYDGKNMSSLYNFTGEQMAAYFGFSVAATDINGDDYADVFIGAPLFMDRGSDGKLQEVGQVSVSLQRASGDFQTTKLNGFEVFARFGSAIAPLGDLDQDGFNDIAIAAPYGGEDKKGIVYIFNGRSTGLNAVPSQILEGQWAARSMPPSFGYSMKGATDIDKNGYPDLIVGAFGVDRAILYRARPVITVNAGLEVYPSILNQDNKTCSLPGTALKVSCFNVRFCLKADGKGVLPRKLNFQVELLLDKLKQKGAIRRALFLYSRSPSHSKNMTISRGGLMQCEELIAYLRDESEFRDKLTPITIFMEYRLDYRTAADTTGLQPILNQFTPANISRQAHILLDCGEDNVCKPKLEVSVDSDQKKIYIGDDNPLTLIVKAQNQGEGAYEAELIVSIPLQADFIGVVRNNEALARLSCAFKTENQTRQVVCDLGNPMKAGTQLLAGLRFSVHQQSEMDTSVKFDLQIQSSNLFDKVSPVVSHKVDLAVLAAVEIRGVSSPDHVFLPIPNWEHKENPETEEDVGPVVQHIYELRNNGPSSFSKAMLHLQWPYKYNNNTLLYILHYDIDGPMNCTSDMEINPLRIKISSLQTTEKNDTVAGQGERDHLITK
Sequence of αvβ1 integrin (αvβ1 expressing CHO cells) (P06756 891-1048 partner): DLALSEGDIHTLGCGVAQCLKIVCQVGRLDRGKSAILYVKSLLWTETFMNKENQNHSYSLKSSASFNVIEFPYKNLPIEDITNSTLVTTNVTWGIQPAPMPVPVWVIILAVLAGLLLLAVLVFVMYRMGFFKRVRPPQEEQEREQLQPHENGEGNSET
Sequence of αvβ1 integrin (αvβ1 expressing CHO cells) (P05556 21-798): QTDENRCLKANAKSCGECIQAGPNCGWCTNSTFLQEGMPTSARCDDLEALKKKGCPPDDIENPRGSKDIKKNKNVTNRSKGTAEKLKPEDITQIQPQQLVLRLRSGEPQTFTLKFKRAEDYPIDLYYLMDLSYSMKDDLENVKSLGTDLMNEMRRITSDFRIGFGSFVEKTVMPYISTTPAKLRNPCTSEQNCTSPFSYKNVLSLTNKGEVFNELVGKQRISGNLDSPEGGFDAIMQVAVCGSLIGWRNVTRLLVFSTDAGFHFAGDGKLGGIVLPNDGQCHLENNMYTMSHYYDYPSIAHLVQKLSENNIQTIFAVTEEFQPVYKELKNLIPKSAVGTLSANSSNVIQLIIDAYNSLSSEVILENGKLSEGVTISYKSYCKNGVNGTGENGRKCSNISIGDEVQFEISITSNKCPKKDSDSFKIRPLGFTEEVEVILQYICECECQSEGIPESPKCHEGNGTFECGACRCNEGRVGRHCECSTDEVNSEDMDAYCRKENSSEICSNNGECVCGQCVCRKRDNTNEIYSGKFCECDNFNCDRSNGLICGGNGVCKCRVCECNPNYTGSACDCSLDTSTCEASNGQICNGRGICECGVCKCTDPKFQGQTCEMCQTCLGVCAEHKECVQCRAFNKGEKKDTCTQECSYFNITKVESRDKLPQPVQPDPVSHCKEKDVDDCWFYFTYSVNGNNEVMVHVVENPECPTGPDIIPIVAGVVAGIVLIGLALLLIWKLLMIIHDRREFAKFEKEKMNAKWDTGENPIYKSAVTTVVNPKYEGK
Type: cell-based
Procedure: Example B1—Cell Adhesion Assay
In order to determine the potency, the compounds were assessed for their ability to inhibit αvβ1 expressing CHO cells attach to TGFβ1LAP. Microplates were coated overnight with 2 ug/ml TGFβ1LAP at 4° C., and blocked with 2% BSA/PBS for 30 min before the assay. Cells were detached and washed in PBS. After that the cells were resuspended in DMEM at 1.0×10^6 cells/ml, fifty microliter of cell suspension and fifty microliter of compound solution were added into the plate. The plates were incubated for one hour at 37° C. in humidified 5% carbon dioxide. Non-adherent cells were removed by centrifugation top side down at 58 g for 5 min. The attached cells were fixed and stained with 0.5% crystal violet (in 20% methanol and 1% formaldehyde) and the wells washed with PBS. Crystal violet was dissolved in 2% Triton-X in PBS. The relative number of cells in each well was evaluated by the absorbance at 595 nm in a microplate reader (Tecan). IC50 values were determined by non-linear regression with four parameters (Graphpad Prism 7.01, Y=Bottom+(Top−Bottom)/(1+10^((Log IC50−X)*HillSlope)).
The compounds tested were compound samples prepared according to procedures described in the Synthetic Examples section, with the stereochemical purity as indicated in the Examples indicated for Example or Compound No. 1-62. The compounds tested were predominantly S-configuration at the alpha carbon of the amino acid scaffold, except for compounds 123, 124, and 125 which were predominantly R-configuration at the alpha carbon of the amino acid scaffold. “Example or Compound No.” in Table B-1 refers to the compound illustrated in the examples for Example or Compound Nos. 1-62 (the compounds of Examples 1-62 are labeled as Compounds 1-62 in Table 1). “Example or Compound No.” in Table B-1 refers to the compound number as indicated in Table 1 or Table 2 for Example or Compound Nos. 63-126.
`O=C(N[C@@H](Cc1ccc(N2CC(c3ccc4c(n3)NCCC4)C2)cc1)C(=O)O)c1c(Cl)cccc1Cl` [Example 22, (S)-2-(2,6-dichlorobenzamido)-3-(4-(3-(5,6,7,8-tetrahydro-1,8-naphthyridin-2-yl)azetidin-1-yl)phenyl)propanoic acid] was tested, and the IC50 was less than 50 nM.
With `CN1CC(NCCCCCCCC[C@H](NC(=O)c2c(Cl)cccc2Cl)C(=O)O)=NCC1=O` [Example 52, (S)-2-(2,6-dichlorobenzamido)-10-((4-methyl-5-oxo-3,4,5,6-tetrahydropyrazin-2-yl)amino)decanoic acid] the IC50 was greater than 1000 nM.
`O=C(N[C@@H](CCCCCCCCNC1=NCCS1)C(=O)O)c1c(Cl)cccc1Cl` [Example 49, (S)-2-(2,6-dichlorobenzamido)-10-((4,5-dihydrothiazol-2-yl)amino)decanoic acid] gave an IC50 of 50 to 250 nM.
Compound `O=C(N[C@@H](Cc1ccc(OCCCc2ccc3c(n2)NCCC3)cc1)C(=O)O)c1ccncc1` [Example 13, (S)-2-(isonicotinamido)-3-(4-(3-(5,6,7,8-tetrahydro-1,8-naphthyridin-2-yl)propoxy)phenyl)propanoic acid] has an IC50 of less than 50 nM.
`O=C(N[C@@H](CCCCCCCc1ccc2c(n1)NCCC2)C(=O)O)c1ccc2c(cnn2C(F)F)c1` [Compound 107] showed an IC50 of 250 to 1000 nM.
With `O=CNc1cc(C(=O)N[C@@H](Cc2ccc(OCCCc3ccc4c(n3)NCCC4)cc2)C(=O)O)ccc1O` [Example 12, (S)-2-(3-formamido-4-hydroxybenzamido)-3-(4-(3-(5,6,7,8-tetrahydro-1,8-naphthyridin-2-yl)propoxy)phenyl)propanoic acid] the IC50 was less than 50 nM.
In the case of `O=C(N[C@@H](Cc1ccc(OCCCc2ccc3c(n2)NCCC3)cc1)C(=O)O)c1cncc(-c2ccccc2)n1` [Example 4, (S)-2-(6-phenylpyrazine-2-carboxamido)-3-(4-(3-(5,6,7,8-tetrahydro-1,8-naphthyridin-2-yl)propoxy)phenyl)propanoic acid], the IC50 is reported as greater than 1000 nM.
For `CC(C)(CCNc1ccccn1)Nc1ccc(C[C@H](NC(=O)c2c(Cl)cccc2Cl)C(=O)O)cc1` [Example 26, (S)-2-(2,6-dichlorobenzamido)-3-(4-((2-methyl-4-(pyridin-2-ylamino)butan-2-yl)amino)phenyl)propanoic acid], the IC50 was greater than 1000 nM.
For `O=C(N[C@@H](Cc1ccc(OCCCCNC2=NCCNC2)cc1)C(=O)O)c1c(Cl)cccc1Cl` [Example 56, (S)-2-(2,6-dichlorobenzamido)-3-(4-(4-((3,4,5,6-tetrahydropyrazin-2-yl)amino)butoxy)phenyl)propanoic acid], the IC50 was 250 to 1000 nM.
Work on `O=C(N[C@@H](Cc1cccc(OCCCc2ccc3c(n2)NCCC3)c1)C(=O)O)c1c(Cl)cccc1Cl` [Example 37, (2S)-2-((2,6-dichlorobenzoyl)amino)-3-(3-(3-(5,6,7,8-tetrahydro-1,8-naphthyridin-2-yl)propoxy)phenyl)propanoic acid] yielded an IC50 of 250 to 1000 nM.
In the case of `O=C(N[C@@H](CCCCCCCc1ccc2c(n1)NCCC2)C(=O)O)c1ccc2nn(C(F)F)cc2c1` [Compound 106], the IC50 is reported as 250 to 1000 nM.
For `Cn1cc2cc(C(=O)N[C@@H](Cc3ccc(OCCCc4ccc5c(n4)NCCC5)cc3)C(=O)O)ccc2n1` [Example 45, (2S)-2-[(2-methylindazole-5-carbonyl)amino]-3-[4-[3-(5,6,7,8-tetrahydro-1,8-naphthyridin-2-yl)propoxy]phenyl]propanoic acid], the IC50 was less than 50 nM.
For `N#Cc1ccc(C(=O)N[C@@H](CCCCCCCc2ccc3c(n2)NCCC3)C(=O)O)c(F)c1` [Compound 101], the IC50 was less than 50 nM.
`Cn1cc2ccc(C(=O)N[C@@H](Cc3ccc(OCCCc4ccc5c(n4)NCCC5)cc3)C(=O)O)cc2n1` [Example 44, (2S)-2-[(2-methylindazole-6-carbonyl)amino]-3-[4-[3-(5,6,7,8-tetrahydro-1,8-naphthyridin-2-yl)propoxy]phenyl]propanoic acid] showed an IC50 of less than 50 nM.
`O=C(NC(CN1CC(OCCCc2ccc3c(n2)NCCC3)C1)C(=O)O)c1c(Cl)cccc1Cl` (racemic) [Example 28, (+/−)-2-(2,6-dichlorobenzamido)-3-(3-(3-(5,6,7,8-tetrahydro-1,8-naphthyridin-2-yl)propoxy)azetidin-1-yl)propanoic acid] gave an IC50 of 250 to 1000 nM.
In the case of `O=C(N[C@@H](Cc1ccc(O[C@H]2CC[C@H](Nc3ccccn3)CC2)cc1)C(=O)O)c1c(Cl)cccc1Cl` [Example 39, (2S)-2-[(2,6-dichlorobenzoyl)amino]-3-[4-[4-trans-(2-pyridylamino)cyclohexoxy]phenyl]propanoic acid], the IC50 is reported as greater than 1000 nM.
`O=C(N[C@@H](C/C=C/CCCCc1ccc2c(n1)NCCC2)C(=O)O)c1c(Cl)cccc1Cl` [Example 20, (S,E)-2-(2,6-dichlorobenzamido)-9-(5,6,7,8-tetrahydro-1,8-naphthyridin-2-yl)non-4-enoic acid] showed an IC50 of less than 50 nM.
`O=C(N[C@@H](Cc1ccc(OCCCC2CCc3cccnc3N2)cc1)C(=O)O)c1c(Cl)cccc1Cl` (stereo partly drawn) [Example 27, (2S)-2-(2,6-dichlorobenzamido)-3-(4-(3-(1,2,3,4-tetrahydro-1,8-naphthyridin-2-yl)propoxy)phenyl)propanoic acid] gave an IC50 of less than 50 nM.
`O=C(N[C@@H](CCCCCCCCNC1=NCCO1)C(=O)O)c1c(Cl)cccc1Cl` [Example 48, (S)-2-(2,6-dichlorobenzamido)-10-((4,5-dihydrooxazol-2-yl)amino)decanoic acid] showed an IC50 greater than 1000 nM.
In the case of `O=C(N[C@@H](Cc1ccc(OCCCc2ccc3c(n2)NCCC3)cc1)C(=O)O)c1c(F)cccc1C(F)(F)F` [Example 6, (S)-2-(2-fluoro-6-(trifluoromethyl)benzamido)-3-(4-(3-(5,6,7,8-tetrahydro-1,8-naphthyridin-2-yl)propoxy)phenyl)propanoic acid], the IC50 is reported as less than 50 nM.
`CN1C(=O)CN=C1NCCCCCCCC[C@H](NC(=O)c1c(Cl)cccc1Cl)C(=O)O` [Example 50, (S)-2-(2,6-dichlorobenzamido)-10-((1-methyl-5-oxo-4,5-dihydro-1H-imidazol-2-yl)amino)decanoic acid] showed an IC50 greater than 1000 nM.
`CN1CCN=C(NCCCCCCCC[C@H](NC(=O)c2c(Cl)cccc2Cl)C(=O)O)C1=O` [Example 53, (S)-2-(2,6-dichlorobenzamido)-10-((4-methyl-3-oxo-3,4,5,6-tetrahydropyrazin-2-yl)amino)decanoic acid] showed an IC50 greater than 1000 nM.

These compounds were tested against recombinant human integrin αvβ1 (Homo sapiens (Human), UniProt P05556+P06756) (assay: Solid phase integrin αvβ1 binding assay (fibronectin)). Settings: recombinant human integrin αvβ1 coated plate, recombinant fibronectin 2 ug/ml, 2 hours at 25° C., read-out: αvβ1 Inhibition IC50 (nM)-range.
Sequence of recombinant human integrin αvβ1 (P06756 31-889): as the sequence (P06756 31-889) above
Sequence of recombinant human integrin αvβ1 (P06756 891-992 partner): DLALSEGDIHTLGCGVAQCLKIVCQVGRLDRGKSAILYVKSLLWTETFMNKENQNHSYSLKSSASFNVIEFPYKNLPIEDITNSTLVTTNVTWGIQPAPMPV
Sequence of recombinant human integrin αvβ1 (P05556 21-728): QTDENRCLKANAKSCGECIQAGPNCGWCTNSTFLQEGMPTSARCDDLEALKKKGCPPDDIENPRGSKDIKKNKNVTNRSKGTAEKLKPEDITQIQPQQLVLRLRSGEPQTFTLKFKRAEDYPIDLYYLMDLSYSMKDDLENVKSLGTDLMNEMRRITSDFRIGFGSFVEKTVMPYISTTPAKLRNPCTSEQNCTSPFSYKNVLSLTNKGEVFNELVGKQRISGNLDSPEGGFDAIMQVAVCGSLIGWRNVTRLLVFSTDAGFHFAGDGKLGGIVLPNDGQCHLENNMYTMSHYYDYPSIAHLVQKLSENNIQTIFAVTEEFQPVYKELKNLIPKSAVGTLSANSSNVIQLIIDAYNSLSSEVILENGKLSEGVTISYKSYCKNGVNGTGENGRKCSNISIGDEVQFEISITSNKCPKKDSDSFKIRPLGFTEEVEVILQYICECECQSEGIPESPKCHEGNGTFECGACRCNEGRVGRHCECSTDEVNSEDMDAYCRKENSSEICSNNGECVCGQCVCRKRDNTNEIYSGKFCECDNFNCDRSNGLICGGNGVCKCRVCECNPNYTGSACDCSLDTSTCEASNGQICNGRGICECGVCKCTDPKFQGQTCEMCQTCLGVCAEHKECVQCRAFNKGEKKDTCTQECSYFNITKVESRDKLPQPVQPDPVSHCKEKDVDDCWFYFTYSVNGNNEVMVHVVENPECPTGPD
Procedure: Example B2—Solid Phase Integrin αvβ1 Binding Assay
Microplates were coated with recombinant human integrin αvβ1 (2 ug/ml) in PBS (100 ul/well 4° C., overnight). The coating solution was removed, washed with PBS. Plate was blocked with 200 ul/well of Block Buffer (2% BSA in PBS) at 37° C. for 1 h. Dilutions of testing compounds and recombinant fibronectin (2 ug/ml) in binding and washing buffer (50 mM Tris-HCl, ph7.5; 0.1% BSA, 1 mM MnCl2; NaCl 150 mM; 0.02% Tween-20; 1 mM CaCl2); 1 mM MgCl2) were added. The plate was incubated for 2 hours at 25° C., washed, and incubated for 1 hour with Biotin-Anti-fibronectin. Bound antibody was detected by peroxidase-conjugated streptavidin. The IC50 values for testing compounds were calculated by a four-parameter logistic regression.
The compounds tested were compound samples prepared according to procedures described in the Synthetic Examples section, with the stereochemical purity as indicated in the Examples. The compounds tested were predominantly S-configuration at the alpha carbon of the amino acid scaffold, except for compounds 123, 124, and 125 which were predominantly R-configuration at the alpha carbon of the amino acid scaffold.
Work on `O=C(NC(CCCCCCCc1ccc2c(n1)NCCC2)C(=O)O)c1cccc(Cl)c1` (stereo not shown) [Compound 91] yielded an IC50 of less than 50 nM.
Compound `O=C(N[C@@H](CCCCCCCc1ccc2c(n1)NCCC2)C(=O)O)c1cccc(F)c1Cl` [Compound 121] has an IC50 of less than 50 nM.
Compound `N#Cc1cccc(C(=O)NC(CCCCCCCc2ccc3c(n2)NCCC3)C(=O)O)c1` (stereo not shown) [Compound 94] has an IC50 of less than 50 nM.
With `O=C(N[C@@H](CCCCCCCc1ccc2c(n1)NCCC2)C(=O)O)c1cc(OC(F)(F)F)ccc1Cl` [Compound 118] the IC50 was less than 50 nM.
In the case of `CC(C)Oc1ccc(C(=O)N[C@@H](CCCCCCCc2ccc3c(n2)NCCC3)C(=O)O)c(Cl)c1` [Compound 117], the IC50 is reported as less than 50 nM.
With `O=C(N[C@H](CCCCCCCc1ccc2c(n1)NCCC2)C(=O)O)c1cccc(-c2cncs2)c1` [Compound 124] the IC50 was greater than 1000 nM.
Work on `Cn1cc(-c2cccc(C(=O)N[C@H](CCCCCCCc3ccc4c(n3)NCCC4)C(=O)O)c2)cn1` [Compound 123] yielded an IC50 greater than 1000 nM.
In the case of `O=C(N[C@H](CCCCCCCc1ccc2c(n1)NCCC2)C(=O)O)c1cc(F)cc(C(F)(F)F)c1` [Compound 125], the IC50 is reported as greater than 1000 nM.
Compound `O=C(NC(CN1CCC(OCCCc2ccc3c(n2)NCCC3)C1)C(=O)O)c1c(Cl)cccc1Cl` (stereo not shown) [Compound 75, 2-(2,6-dichlorobenzamido)-3-(3-(3-(5,6,7,8-tetrahydro-1,8-naphthyridin-2-yl)propoxy)pyrrolidin-1-yl)propanoic acid] has an IC50 of 250 to 1000 nM.
Work on `O=C(O)C(CCCCCCCc1ccc2c(n1)NCCC2)NC(=O)N1CCn2c(nnc2C(F)(F)F)C1` (stereo not shown) [Compound 97] yielded an IC50 of less than 50 nM.
For `N#Cc1ccc(C(=O)NC(CCCCCCCc2ccc3c(n2)NCCC3)C(=O)O)cc1` (stereo not shown) [Compound 90], the IC50 was less than 50 nM.
Compound `COc1ccc(C(=O)NC(CCCCCCCc2ccc3c(n2)NCCC3)C(=O)O)cc1` (stereo not shown) [Compound 89] has an IC50 of less than 50 nM.

— US20230365556A1, “N-ACYL AMINO ACID COMPOUNDS AND METHODS OF USE” (Pliant Therapeutics, Inc., priority 2016, published 2023)
